Literature values as cited in patent publication US20040197429A1, “Selective COX-2 inhibition from plant extracts” (Pharmacia Corporation, priority 2000, published 2004).

Tested on: COX-1 and COX-2
Details: background

CC(=O)Oc1ccccc1C(=O)O [aspirin]
effectiveness inactivating COX-1 as opposed to COX-2: 10 to 100 times
